For 27 molecules, Papp, efflux ratio and IC50 results are on record in patent US20240368163A1, “COMPOUNDS AND METHODS FOR MODULATING SPLICING” (REMIX THERAPEUTICS INC., priority 2021, published 2024).

Data set [1] is described as follows: Transwell assay for membrane efflux and permeability. Type of data set: in vitro ADME, Canine. The conditions noted are these: dog; MDCK-BCRP or MDCKII-MDR1 transwell, test compound 1 μM, 2 hours at 37° C. An excerpt: Compounds described herein were screened for cell membrane permeability and efflux in a transwell assay using Madin-Darby Canine Kidney (MDCK) cells expressing Breast Cancer Resistance Protein (BCRP) or subclone MDCKII cells expressing Multidrug Resistance Protein 1 (MDR1).
MDCK-BCRP or MDCKII-MDR1 Cells: The Netherlands Cancer Institute, High Glucose Dulbecco's Modified Eagle's Medium (DMEM): Gibco/Thermo Fisher Scientific, Fetal Bovine Serum (FBS): Coming, Hank's Balanced Salt Solution (HBSS) and Trypsin/EDTA: Gibco/Thermo Fisher Scientific, HTS Transwell-96 Well Permeable Supports: Coming Corporation, Millicell Epithelial Volt-Ohm: Millipore, Cellometer® Vision: Nexcelom Bioscience LLC, Infinite 200 PRO microplate reader: Tecan, MTS2/4 orbital shaker: IKA Labortechnik, HEPES/Penicillin/Streptomycin: Solarbio.
MDCK-BCRP or MDCKII-MDR1 cells were seeded to each of the wells of the transwell plate at a density of 1.6×10^6 cells/mL and the plate was incubated for 4-8 days with medium changes every two days. To perform the drug transport assay, cell monolayers were first washed three times with pre-warmed HBSS and then incubated with gentle shaking (150 rpm) for 30 min at 37° C. Stock solutions of test compounds (e.g., exemplary compounds of Formulas (I), (II), and (III)) and control compounds (e.g., metoprolol, prazosin, and/or imatinib) were prepared in DMSO and adjusted to a working solution using HBSS. The final concentration of test compounds was 1 μM with DMSO; 0.5%. The plates were incubated at 37° C. for 2 hours.

A further data set deals with HTT. The data set is described as follows: HiBiT protein abundance assay, HTT. Particulars: Table 13A, modified K562 cells. Format: cell-based, human. Put shortly: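 Protein abundance measured by Nano-Glo HiBiT lytic luminescence after 24 h compound exposure of modified K562 lines, 10000 cells/well, top final dose 10 μM in 3-fold steps. Four-parameter fit of control-normalised response gives concentration reducing abundance to 50% of untreated.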
For orientation: HiBiT is a short tag that completes a luciferase, so light tracks the accessible tagged protein.

Bounds are passed on as bounds.

As a reminder, the Papp is the rate of passage across a membrane or cell layer, normalised by area and donor concentration. Lower therefore signals slow passage. As usually defined, the efflux ratio is a quotient of directional permeabilities that is used to spot active efflux. The IC50 is the point on the concentration scale where inhibition reaches its midpoint. Low values mean higher potency, high ones lower potency. For the molecule `CN(c1ccc(-c2cc(F)c(-c3cn[nH]c3)c3cn[nH]c23)nn1)[C@@H]1C[C@H]2CC(F)(F)[C@@H](C1)N2` (stereo in doubt) [Compound 378, 6,6-difluoro-N-{6-[5-fluoro-4-(1H-pyrazol-4-yl)-1H-indazol-7-yl]pyridazin-3-yl}-N-methyl-8-azabicyclo[3.2.1]octan-3-amine], in data set [1], the Papp at 2 h, 1 μM was in the range of 2 to 6 ×10⁻⁶ cm/s and the efflux ratio at 2 h, 1 μM is more than 5. The molecule further yielded an IC50 with HTT (Homo sapiens, K562, 24 h) of less than 100 nM.
In the same order, the values of `CN(c1ccc(-c2ccc(-c3cn[nH]c3)c3ncsc23)nn1)[C@@H]1C[C@H]2CC(F)(F)[C@@H](C1)N2` (stereo in doubt) [Compound 379, 6,6-difluoro-N-methyl-N-{6-[4-(1H-pyrazol-4-yl)-1,3-benzothiazol-7-yl]pyridazin-3-yl}-8-azabicyclo [3.2.1]octan-3-amine] are 2 to 6 ×10⁻⁶ cm/s, 1.5 to 5 and less than 100 nM.
In the same order, the values of `CN(c1ccc(-c2ccc(-c3cn[nH]c3)c3cn[nH]c23)nn1)[C@@H]1C[C@H]2CC[C@@H](C1)N2` [Compound 104] are less than 2 ×10⁻⁶ cm/s, more than 5 and less than 100 nM.
In the same order, the values of `CN(c1ccc(-c2ccc(-n3cccn3)c3cn[nH]c23)nn1)[C@@H]1C[C@H]2CC[C@@H](C1)N2` [Compound 105] are less than 2 ×10⁻⁶ cm/s, more than 5 and less than 100 nM.
With `CN(c1ccc(-c2ccc(-c3cn[nH]c3)c3ncsc23)nn1)C1CC(C)(C)NC(C)(C)C1` [Compound 132], in data set [1], the Papp at 2 h, 1 μM is less than 2 ×10⁻⁶ cm/s and the efflux ratio at 2 h, 1 μM was more than 5. In the data set with HTT (Homo sapiens, K562, 24 h), this molecule yielded an IC50 of 100 to 1000 nM.
In the same order, the values of `CN(c1ccc(-c2ccc(-c3cn[nH]c3)c3cn[nH]c23)nn1)C1CC(C)(C)NC(C)(C)C1` [Compound 137] are less than 2 ×10⁻⁶ cm/s, more than 5 and 100 to 1000 nM.
For `CN(c1ccc(-c2ccc(-c3ccc(=O)n(C)c3)c3scnc23)nn1)C1CC(C)(C)NC(C)(C)C1` [Compound 178], in data set [1], the Papp at 2 h, 1 μM was less than 2 ×10⁻⁶ cm/s and the efflux ratio at 2 h, 1 μM is more than 5. This molecule had an IC50 in the data set with HTT (Homo sapiens, K562, 24 h) of more than 10000 nM.
For the molecule `CC1(C)CC(Oc2ccc(-c3ccc(-c4cn[nH]c4)c4ncsc34)nn2)CCN1` (stereo not shown) [Compound 182], in data set [1], the Papp at 2 h, 1 μM is less than 2 ×10⁻⁶ cm/s and the efflux ratio at 2 h, 1 μM was more than 5. The IC50 with HTT (Homo sapiens, K562, 24 h) was less than 100 nM.
In the same order, the values of `c1nc2c(-c3cn[nH]c3)ccc(-c3ccc(OC4CCNCC4)nn3)c2s1` [Compound 183] are less than 2 ×10⁻⁶ cm/s, more than 5 and less than 100 nM.
On to `c1nc2c(-c3cn[nH]c3)ccc(-c3ccc(O[C@@H]4C[C@H]5CC[C@@H](C4)N5)nn3)c2s1` [Compound 184], for which, in data set [1], the Papp at 2 h, 1 μM was less than 2 ×10⁻⁶ cm/s and the efflux ratio at 2 h, 1 μM was more than 5. The IC50 with HTT (Homo sapiens, K562, 24 h) is less than 100 nM.
With `CC1(C)CC(Nc2ccc(-c3ccc(-c4cn[nH]c4)c4ncsc34)nn2)CC(C)(C)N1` [Compound 186], in data set [1], the Papp at 2 h, 1 μM was less than 2 ×10⁻⁶ cm/s and the efflux ratio at 2 h, 1 μM is more than 5. In the data set on HTT (Homo sapiens, K562, 24 h), this molecule registered an IC50 of less than 100 nM.
As to `c1nc2c(-c3cn[nH]c3)ccc(-c3ccc(N[C@@H]4C[C@H]5CC[C@@H](C4)N5)nn3)c2s1` [Compound 202], in data set [1], the Papp at 2 h, 1 μM is less than 2 ×10⁻⁶ cm/s and the efflux ratio at 2 h, 1 μM is more than 5. The molecule also showed an IC50 in the data set on HTT (Homo sapiens, K562, 24 h) of less than 100 nM.
In the same order, the values of `CCN(c1ccc(C2=CC=C(c3cn[nH]c3)C3N=CSC23)nn1)[C@@H]1C[C@H]2CC[C@@H](C1)N2` (stereo partly shown) [Compound 203] are less than 2 ×10⁻⁶ cm/s, more than 5 and less than 100 nM.
In the same order, the values of `CN(c1ccc(-c2ccc(-c3cn[nH]c3)c3ncsc23)nn1)[C@H]1C[C@]2(C)CC[C@](C)(C1)N2` [Compound 204] are less than 2 ×10⁻⁶ cm/s, more than 5 and less than 100 nM.
In the same order, the values of `[2H]C([2H])([2H])N(c1ccc(-c2ccc(-c3cn[nH]c3)c3ncsc23)nn1)[C@@H]1C[C@H]2CC[C@@H](C1)N2` [Compound 210] are less than 2 ×10⁻⁶ cm/s, more than 5 and less than 100 nM.
Turning to `CN(c1ccc(-c2ccc(-c3cn[nH]c3)c3ncsc23)nn1)[C@@H]1C[C@H]2CC[C@@H](C1)N2` [Compound 213], in data set [1], the apparent permeability coefficient (Papp) at 2 h, 1 μM was less than 2 ×10⁻⁶ cm/s and the efflux ratio at 2 h, 1 μM was more than 5. In the data set on HTT (Homo sapiens, K562, 24 h), this molecule displayed a concentration for half-maximal inhibition (IC50) of less than 100 nM.
In the same order, the values of `c1nc2c(-c3cn[nH]c3)ccc(-c3ccc(N[C@@H]4C[C@H]5CCC[C@@H](C4)N5)nn3)c2s1` [Compound 215] are less than 2 ×10⁻⁶ cm/s, more than 5 and less than 100 nM.
In the same order, the values of `Fc1cc(-c2ccc(O[C@@H]3C[C@H]4CC[C@@H](C3)N4)nn2)c2[nH]ncc2c1-c1cn[nH]c1` [Compound 216] are less than 2 ×10⁻⁶ cm/s, more than 5 and less than 100 nM.
In the same order, the values of `CN(c1ccc(-c2ccc(-c3cn[nH]c3)c3ncsc23)nn1)[C@@H]1C[C@H]2CCC[C@@H](C1)N2` [Compound 226] are less than 2 ×10⁻⁶ cm/s, more than 5 and less than 100 nM.
Regarding `[2H]C([2H])([2H])N(c1ccc(-c2ccc(-c3cn[nH]c3)c3ncsc23)nn1)[C@@H]1C[C@H]2CCC[C@@H](C1)N2` [Compound 227], in data set [1], the Papp at 2 h, 1 μM was less than 2 ×10⁻⁶ cm/s and the efflux ratio at 2 h, 1 μM was more than 5. This molecule also came in with an IC50 in the data set on HTT (Homo sapiens, K562, 24 h) of less than 100 nM.
In the same order, the values of `CCN(c1ccc(-c2ccc(-c3cn[nH]c3)c3ncsc23)nn1)[C@@H]1C[C@H]2CCC[C@@H](C1)N2` [Compound 228] are less than 2 ×10⁻⁶ cm/s, more than 5 and less than 100 nM.
In the same order, the values of `CN(c1ccc(-c2ccc(-c3cnn(C)c3)c3cn[nH]c23)nn1)C1CCNCC1` [Compound 242] are less than 2 ×10⁻⁶ cm/s, more than 5 and 1000 to 10000 nM.
In the same order, the values of `CN(c1ccc(-c2cc(F)c(-c3cnn(C)c3)c3cn[nH]c23)nn1)[C@@H]1C[C@H]2CC[C@@H](C1)N2` [Compound 291] are less than 2 ×10⁻⁶ cm/s, more than 5 and less than 100 nM.
As for `c1n[nH]cc1-c1ccc(-c2ccc(N[C@@H]3C[C@H]4CCC[C@@H](C3)N4)nn2)c2[nH]ncc12` [Compound 294], in data set [1], the Papp at 2 h, 1 μM was less than 2 ×10⁻⁶ cm/s and the efflux ratio at 2 h, 1 μM lay within 1.5 to 5. Further, the IC50 with HTT (Homo sapiens, K562, 24 h) is 100 to 1000 nM.
In the same order, the values of `CC1(C)CC(Oc2ccc(-c3cc(F)c(-c4cn[nH]c4)c4cn[nH]c34)nn2)CC(C)(C)N1` [Compound 307] are 2 to 6 ×10⁻⁶ cm/s, more than 5 and less than 100 nM.
In the same order, the values of `c1nc2c(-c3cn[nH]c3)ccc(-c3ccc(N(C4CC4)C4C[C@H]5CCC[C@@H](C4)N5)nn3)c2s1` (stereo partly shown) [Compound 311] are less than 2 ×10⁻⁶ cm/s, more than 5 and 100 to 1000 nM.
Turning to `CN(c1ccc(-c2ccc(-c3cn[nH]c3)c3ncsc23)nn1)[C@H]1C[C@H]2COC[C@@H](C1)N2` [Compound 356, (endo)-N-methyl-N-{6-[4-(1H-pyrazol-4-yl)-1,3-benzothiazol-7-yl]pyridazin-3-yl}-3-oxa-9-azabicyclo[3.3.1]nonan-7-amine], the IC50 in the data set with HTT (24 hours) was less than 100 nM.
